Test results from ChEMBL document CHEMBL6121066, “Structure-Activity Relationship Studies of DNA Methyltransferase 1 Monovalent Degraders” (J Med Chem, 2025).
Blank lines part the entries; values can stand above or below the molecule they belong to. The source made the active and inactive calls. The calls are words filed in the database; no cut-off is given here.

How the values were obtained:
[1] = test system: HCT-116; test: Induction of molecular glue effect mediated DNMT1 degradation in human HCT-116 cells assessed as reduction in DNMT1 protein level by measuring maximal efficacy at 1 uM incubated for 24 hrs by Western blot analysis relative to control; format: cell-based
[2] = (§1) Induction of molecular glue effect mediated DNMT1 degradation in human HCT-116 cells assessed as reduction in DNMT1 protein level incubated for 24 hrs by Western blot analysis; format: cell-based; details: HCT-116, 24 h
[3] = test system: HCT-116; test: Induction of molecular glue effect mediated DNMT1 degradation in human HCT-116 cells transfected with WWP1 siRNA assessed as reduction in DNMT1 protein level at 100 nM measured after 24 hrs by Western blot analysis; format: cell-based
[4] = test system: HCT-116; test: Induction of molecular glue effect mediated DNMT1 degradation in human HCT-116 cells assessed as reduction in DNMT1 protein level at 500 nM measured after 24 hrs by Western blot analysis relative to control; format: cell-based; parameters: scale not given: the % may be the effect or the level left
[5] = test system: MDA-MB-468; test: Effect on DNMT1 mRNA level in human MDA-MB-468 cells at 500 nM incubated for 24 hrs by RT-qPCR analysis; format: functional, cell-based
[6] = test system: HCT-116; test: Downregulation of DNMT1 protein level in human HCT-116 cells at 1 uM incubated for 12 hrs by MS-based global proteomic analysis; format: functional, cell-based
[7] = test system: HCT-116; test: as §1; format: cell-based
[8] = test system: NCI-H1299; test: Induction of molecular glue effect mediated DNMT1 degradation in human NCI-H1299 cells assessed as reduction in DNMT1 protein level at 100 nM preincubated with MLN4924 for 2 hrs followed by compound addition and measured after 24 hrs by Western blot analysis; format: cell-based
[9] = test system: HCT-116; test: Induction of molecular glue effect mediated DNMT1 degradation in human HCT-116 cells transfected with UHRF1 siRNA assessed as reduction in DNMT1 protein level at 100 nM measured after 24 hrs by Western blot analysis; format: cell-based
[10] = test system: HCT-116; test: Effect on DNMT1 mRNA level in human HCT-116 cells at 500 nM incubated for 24 hrs by RT-qPCR analysis; format: functional, cell-based
[11] = test system: HCT-116; test: Induction of molecular glue effect mediated DNMT1 degradation in human HCT-116 cells assessed as reduction in DNMT1 protein level at 100 nM preincubated with TRAF6 inhibitor C25-140 for 2 hrs followed by compound addition and measured after 24 hrs by Western blot analysis; format: cell-based
[12] = test system: HCT-116; test: Induction of molecular glue effect mediated DNMT1 degradation in human HCT-116 cells assessed as reduction in DNMT1 protein level at 500 nM measured after 2 hrs by Western blot analysis relative to control; format: cell-based; parameters: scale not given: the % may be the effect or the level left
[13] = test system: HCT-116; test: Induction of molecular glue effect mediated DNMT3B degradation in human HCT-116 cells assessed as reduction in DNMT3B protein level at 500 nM incubated for 24 hrs by Western blot analysis; format: cell-based
[14] = test system: HCT-116; test: Induction of molecular glue effect mediated DNMT3A degradation in human HCT-116 cells assessed as reduction in DNMT3A protein level at 500 nM incubated for 24 hrs by Western blot analysis; format: cell-based
[15] = test system: HCT-116; test: Induction of molecular glue effect mediated DNMT1 degradation in human HCT-116 cells assessed as reduction in DNMT1 protein level by measuring half-life at 500 nM preincubated with cycloheximide for 2 hrs followed by compound administration and measured after 24 hrs by Western blot analysis; format: cell-based
[16] = test system: NCI-H1299; test: Induction of molecular glue effect mediated DNMT1 degradation in human NCI-H1299 cells assessed as reduction in DNMT1 protein level at 100 nM preincubated with MG132 for 2 hrs followed by compound addition and measured after 24 hrs by Western blot analysis; format: cell-based
[17] = test system: HCT-116; test: Induction of molecular glue effect mediated DNMT1 degradation in human HCT-116 cells assessed as reduction in DNMT1 protein level at 100 nM preincubated with TAK-243 for 2 hrs followed by compound addition and measured after 24 hrs by Western blot analysis; format: cell-based
[18] = test system: HCT-116; test: Induction of molecular glue effect mediated DNMT1 degradation in human HCT-116 cells assessed as reduction in DNMT1 protein level at 100 nM preincubated with heclin for 2 hrs followed by compound addition and measured after 24 hrs by Western blot analysis; format: cell-based
[19] = test system: MV4-11; test: Antiproliferative activity against human MV4-11 cells assessed as inhibition of cell growth at 0.177 to 15 uM incubated for 7 days by CCK8 assay; format: functional, cell-based; details: dose 0.177-15 µM, time 7.0 day
[20] = test system: HCT-116; test: Induction of molecular glue effect mediated DNMT1 degradation in human HCT-116 cells transfected with NEDD4 siRNA assessed as reduction in DNMT1 protein level at 100 nM measured after 24 hrs by Western blot analysis; format: cell-based
[21] = test system: MDA-MB-468; test: Induction of molecular glue effect mediated DNMT1 degradation in human MDA-MB-468 cells assessed as reduction in DNMT1 protein level at 100 nM preincubated with MLN4924 for 2 hrs followed by compound addition and measured after 24 hrs by Western blot analysis; format: cell-based
[22] = test system: HCT-116; test: Induction of molecular glue effect mediated DNMT1 degradation in human HCT-116 cells transfected with Smurf2 siRNA assessed as reduction in DNMT1 protein level at 100 nM measured after 24 hrs by Western blot analysis; format: cell-based
[23] = test system: HCT-116; test: Induction of molecular glue effect mediated DNMT1 degradation in human HCT-116 cells assessed as reduction in DNMT1 protein level at 100 nM preincubated with lysosome inhibitor CQ for 2 hrs followed by compound addition and measured after 24 hrs by Western blot analysis; format: cell-based
[24] = test system: HCT-116; test: Induction of molecular glue effect mediated DNMT1 degradation in human HCT-116 cells assessed as reduction in DNMT1 protein level at 100 nM preincubated with MG132 for 2 hrs followed by compound addition and measured after 24 hrs by Western blot analysis; format: cell-based
[25] = test system: NCI-H1299; test: Effect on DNMT1 mRNA level in human NCI-H1299 cells at 500 nM incubated for 24 hrs by RT-qPCR analysis; format: functional, cell-based
[26] = test system: HCT-116; test: Induction of molecular glue effect mediated DNMT1 degradation in human HCT-116 cells assessed as reduction in DNMT1 protein level at 500 nM by Western blot analysis; format: cell-based; details: time 2-24 hrs
[27] = test system: HCT-116; test: Antiproliferative activity against human HCT-116 cells assessed as inhibition of cell growth upto 15 uM incubated for 7 days by CCK8 assay relative to control; format: functional; details: time 7 day, up to 15 µM
[28] = test system: HCT-116; test: Induction of molecular glue effect mediated DNMT1 degradation in human HCT-116 cells assessed as reduction in DNMT1 protein level at 100 nM preincubated with MLN4924 for 2 hrs followed by compound addition and measured after 24 hrs by Western blot analysis; format: cell-based
[29] = test system: MDA-MB-468; test: Induction of molecular glue effect mediated DNMT1 degradation in human MDA-MB-468 cells assessed as reduction in DNMT1 protein level at 100 nM preincubated with MG132 for 2 hrs followed by compound addition and measured after 24 hrs by Western blot analysis; format: cell-based
[30] = target: DNA (cytosine-5)-methyltransferase 1 (Homo sapiens, UniProt P26358); test: Inhibition of human DNMT1 (350 to 1600 residues) extracted from Escherichia coli BL21 (DE3)-codon plus-RIL cells in presence of SAM and hemimethylated DNA
DNA (cytosine-5)-methyltransferase 1, sequence (P26358 whole entry, the tested form may be a part): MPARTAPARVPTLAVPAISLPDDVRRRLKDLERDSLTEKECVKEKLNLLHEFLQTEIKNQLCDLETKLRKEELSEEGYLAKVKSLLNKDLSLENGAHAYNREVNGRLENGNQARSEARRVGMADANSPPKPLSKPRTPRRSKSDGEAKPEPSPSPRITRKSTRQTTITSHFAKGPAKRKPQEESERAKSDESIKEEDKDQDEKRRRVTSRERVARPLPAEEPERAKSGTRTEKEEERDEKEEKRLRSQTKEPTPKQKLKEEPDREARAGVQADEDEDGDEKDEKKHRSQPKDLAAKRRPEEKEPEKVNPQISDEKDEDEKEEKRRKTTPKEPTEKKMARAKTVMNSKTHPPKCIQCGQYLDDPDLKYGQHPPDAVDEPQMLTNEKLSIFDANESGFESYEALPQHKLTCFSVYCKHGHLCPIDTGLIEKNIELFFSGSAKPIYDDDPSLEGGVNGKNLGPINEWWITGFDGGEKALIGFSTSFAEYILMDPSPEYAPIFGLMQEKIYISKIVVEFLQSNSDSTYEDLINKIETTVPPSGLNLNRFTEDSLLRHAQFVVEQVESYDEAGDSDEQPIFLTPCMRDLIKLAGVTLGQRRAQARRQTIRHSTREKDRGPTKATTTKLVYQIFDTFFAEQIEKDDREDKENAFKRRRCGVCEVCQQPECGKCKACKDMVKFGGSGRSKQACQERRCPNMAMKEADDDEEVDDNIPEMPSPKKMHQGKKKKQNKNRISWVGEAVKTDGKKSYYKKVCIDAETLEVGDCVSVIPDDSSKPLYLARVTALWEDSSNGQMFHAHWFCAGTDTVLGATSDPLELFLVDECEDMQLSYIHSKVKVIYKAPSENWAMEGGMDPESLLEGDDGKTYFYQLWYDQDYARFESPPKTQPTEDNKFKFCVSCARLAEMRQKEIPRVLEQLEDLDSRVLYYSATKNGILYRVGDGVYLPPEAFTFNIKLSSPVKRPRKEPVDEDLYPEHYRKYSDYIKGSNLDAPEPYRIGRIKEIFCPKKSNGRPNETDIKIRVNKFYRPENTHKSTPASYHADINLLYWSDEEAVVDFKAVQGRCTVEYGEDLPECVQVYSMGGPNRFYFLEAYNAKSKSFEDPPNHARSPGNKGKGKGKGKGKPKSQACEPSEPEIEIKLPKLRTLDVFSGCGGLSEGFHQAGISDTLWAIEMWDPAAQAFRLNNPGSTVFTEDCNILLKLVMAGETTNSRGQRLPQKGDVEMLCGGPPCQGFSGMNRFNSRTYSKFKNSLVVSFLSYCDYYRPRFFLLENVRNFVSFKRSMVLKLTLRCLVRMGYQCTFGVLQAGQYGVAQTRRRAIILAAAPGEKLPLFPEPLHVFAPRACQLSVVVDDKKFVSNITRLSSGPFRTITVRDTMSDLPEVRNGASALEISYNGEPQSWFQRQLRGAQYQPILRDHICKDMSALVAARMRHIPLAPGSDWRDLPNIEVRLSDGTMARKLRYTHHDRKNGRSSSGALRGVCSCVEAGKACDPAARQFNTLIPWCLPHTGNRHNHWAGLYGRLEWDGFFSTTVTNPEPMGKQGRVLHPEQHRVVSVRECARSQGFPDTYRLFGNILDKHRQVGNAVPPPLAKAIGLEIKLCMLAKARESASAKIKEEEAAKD

SMILES: CCc1c(C#N)c(SC(C(N)=O)c2ccccc2)nc(N(C)CCN)c1C#N (configuration not stated)
Emax [1]: 79%
DC50 [2]: 78 nM

SMILES: CCc1c(C#N)c(S[C@@H](C(N)=O)c2ccccc2)nc(N(C)C)c1C#N
Emax [1]: 89%

SMILES: CCc1c(C#N)c(SC(C(N)=O)c2ccccc2)nc(N(C)CCNC(C)=O)c1C#N (configuration not stated)
Emax [1]: 56%
DC50 [2]: 753 nM

SMILES: CCc1c(C#N)c(SC(C(N)=O)c2ccccc2)nc(N2CCN(C(=O)c3ccc(Br)cc3)CC2)c1C#N (configuration not stated)
Emax [1]: 79%
DC50 [2]: 563 nM

SMILES: CCc1c(C#N)c(SC(C(N)=O)c2ccccc2)nc(N2CCN(C(=O)C34CC5CC(CC(C5)C3)C4)CC2)c1C#N (configuration not stated)
Emax [1]: 80%
DC50 [2]: 409 nM

SMILES: CCc1c(C#N)c(SC(C(N)=O)c2ccccc2)nc(N2CCC(N)CC2)c1C#N (configuration not stated)
Activity [3]: Active
Emax [1]: 89%
Activity [4]: 100%
Activity [5]: inactive
Activity [6]: Active
Activity [7]: Dose-dependent-effect
Activity [8]: Active
Activity [9]: Not active; Partial Rescue Of Degradation Observed
Activity [10]: inactive
Activity [11]: Active
Activity [12]: < 30%
Activity [13]: inactive
Activity [14]: inactive
T1/2 [15]: < 4 h
Activity [16]: inactive
Activity [17]: inactive
Activity [18]: Not active; Partial Rescue Of Degradation Observed
Activity [19]: Active
Activity [20]: Active
Activity [21]: Active
Activity [22]: Active
Activity [23]: Active
Activity [24]: inactive
Activity [25]: inactive
Activity [26]: Time-dependent-effect
inhibition (INH) [27]: <50%
Activity [28]: Active
Activity [29]: inactive

SMILES: CCc1c(C#N)c(NCC(N)=O)nc(SC(C(N)=O)c2ccccc2)c1C#N (configuration not stated)
Emax [1]: 32%
DC50 [2]: > 1000 nM
IC50 [30]: > 3000 nM

The next lines start with results.

DC50 [2]: 42 nM
SMILES: CCc1c(C#N)c(SC(C(N)=O)c2ccccc2)nc(N2CCN(C(=O)c3ccco3)CC2)c1C#N (configuration not stated)
Emax [1]: 94%

DC50 [2]: 111 nM
SMILES: CCc1c(C#N)c(SC(C(=O)NC)c2ccccc2)nc(N2CCC(N)CC2)c1C#N (configuration not stated)
Emax [1]: 82%

DC50 [2]: 946 nM
SMILES: CCc1c(C#N)c(SC(C(N)=O)c2ccccc2)nc(N2CC3(CN(C(=O)C(C)(C)C)C3)C2)c1C#N (configuration not stated)
Emax [1]: 43%

DC50 [2]: 121 nM
SMILES: CCc1c(C#N)c(SC(C(N)=O)c2ccccc2)nc(N2CCC(=O)N(C)CC2)c1C#N (configuration not stated)
Emax [1]: 86%

DC50 [2]: 534 nM
SMILES: CCc1c(C#N)c(SC(C(N)=O)c2ccccc2)nc(N2CCNC(=O)C2)c1C#N (configuration not stated)
Emax [1]: 65%

DC50 [2]: 362 nM
SMILES: CCc1c(C#N)c(SC(C(N)=O)c2ccccc2)nc(N2CCS(=O)(=O)CC2)c1C#N (configuration not stated)
Emax [1]: 74%

DC50 [2]: 35 nM
SMILES: CCc1c(C#N)c(SC(C(N)=O)c2ccccc2)nc(N2CCC(NC(=O)C34CC5CC(CC(C5)C3)C4)CC2)c1C#N (configuration not stated)
Emax [1]: 92%

DC50 [2]: 39 nM
SMILES: CCc1c(C#N)c(SC(C(N)=O)c2ccccc2)nc(N2CCC(NC(=O)C(C)(C)C)CC2)c1C#N (configuration not stated)
Emax [1]: 90%

DC50 [2]: > 1000 nM
SMILES: CCc1c(C#N)c(SC(C(N)=O)c2ccccc2)nc(N2CCC(NC(C)=O)CC2)c1C#N (configuration not stated)
Emax [1]: 13%

DC50 [2]: 63 nM
SMILES: CCc1c(C#N)c(SC(C(N)=O)c2ccccc2)nc(N2CCN(C(=O)C(C)(C)C)CC2)c1C#N (configuration not stated)
Emax [1]: 88%

DC50 [2]: 107 nM
SMILES: CCc1c(C#N)c(SC(C(N)=O)c2ccccc2)nc(N2CCN(C(C)=O)CC2)c1C#N (configuration not stated)
Emax [1]: 87%
